Here are results for 40 molecules from paper PMC9250534, “Synthesis and direct assay of large macrocycle diversities by combinatorial late-stage modification at picomole scale” (Nature Communications, 2022).

The structures appear in SMILES notation.

Sequence of MDM2 (Q00987 whole entry): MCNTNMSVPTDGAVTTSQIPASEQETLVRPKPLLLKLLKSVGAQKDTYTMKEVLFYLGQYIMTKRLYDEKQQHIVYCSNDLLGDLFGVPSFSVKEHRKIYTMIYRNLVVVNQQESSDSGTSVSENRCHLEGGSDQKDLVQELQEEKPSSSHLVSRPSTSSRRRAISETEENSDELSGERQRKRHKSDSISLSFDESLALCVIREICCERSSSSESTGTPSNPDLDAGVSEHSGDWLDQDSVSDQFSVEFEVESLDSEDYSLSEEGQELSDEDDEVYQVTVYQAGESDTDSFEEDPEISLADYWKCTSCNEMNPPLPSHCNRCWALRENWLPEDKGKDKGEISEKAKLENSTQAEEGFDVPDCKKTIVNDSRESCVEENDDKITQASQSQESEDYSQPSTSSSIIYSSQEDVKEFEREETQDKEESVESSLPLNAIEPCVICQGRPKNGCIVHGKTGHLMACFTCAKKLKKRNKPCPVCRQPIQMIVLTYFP

In the first assay the target is MDM2 (Homo sapiens, UniProt Q00987). Kind of assay: MDM2 binding screen of Libraries 3 and 4: displacement of fluorescent probe F-M8 at 750 nM macrocycle. Conditions: Panel b, Library 3: 63 scaffolds combinatorially acylated with 15 carboxylic acids at 30 picomole scale; displacement of fluorescent peptide probe; macrocycle 750 nM. In a few lines:
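Cyclic peptide scaffolds were acylated in DMSO with carboxylic acids (20 equiv.), HBTU and DABCO for 6 h at room temperature. Reactions were quenched overnight in 100 mM Tris-Cl pH 7.4, 0.01% Tween20. The fluorescein conjugate was also competed with nutlin-3a.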
Turning to `Cn1cc(C[C@@H]2NC(=O)[C@H](CNC(=O)CCS(=O)(=O)c3ccccc3)NC(=O)[C@H]3CCCN(C3)C(=O)CCSSCCNC2=O)c2ccccc21` [X-Nip-Dap-Me-Trp + Acid 114], the “fraction of fluorescent probe displaced” value is listed as -0.00533.

As to `Cn1cc(C[C@@H]2NC(=O)[C@H](CNC(=O)C3COc4ccccc4O3)NC(=O)[C@H]3CCCN(C3)C(=O)CCSSCCNC2=O)c2ccccc21` (stereo partly drawn) [X-Nip-Dap-Me-Trp + Acid 115], the “fraction of fluorescent probe displaced” value is given as 0.028. For the molecule `CN1C(=O)[C@H](CNC(=O)c2ccc(Cl)cc2)NC(=O)[C@H]2CCCN(C2)C(=O)CCSSCCNC(=O)[C@@H]1Cc1c[nH]c2ccccc12` [X-Nip-Dap-NMe-Trp + Acid 25], the “fraction of fluorescent probe displaced” value is given as 0.00133. The same measure, in the same setting: the value for `CN1C(=O)[C@H](CNC(=O)/C=C/c2ccncc2)NC(=O)[C@H]2CCCN(C2)C(=O)CCSSCCNC(=O)[C@@H]1Cc1c[nH]c2ccccc12` [X-Nip-Dap-NMe-Trp + Acid 106] was -0.021.

On to `CN1C(=O)[C@H](CNC(=O)c2ccc3ccccc3c2)NC(=O)[C@H]2CCCN(C2)C(=O)CCSSCCNC(=O)[C@@H]1Cc1c[nH]c2ccccc12` [X-Nip-Dap-NMe-Trp + Acid 107], for which the “fraction of fluorescent probe displaced” value was 0.031. On the same count and under the same terms, the value for `CN1C(=O)[C@H](CNC(=O)/C=C/c2ccc(Cl)cc2)NC(=O)[C@H]2CCCN(C2)C(=O)CCSSCCNC(=O)[C@@H]1Cc1c[nH]c2ccccc12` [X-Nip-Dap-NMe-Trp + Acid 108] was 0.00133. With `CN1C(=O)[C@H](CNC(=O)/C=C/c2ccc(OCc3ccccc3)cc2)NC(=O)[C@H]2CCCN(C2)C(=O)CCSSCCNC(=O)[C@@H]1Cc1c[nH]c2ccccc12` [X-Nip-Dap-NMe-Trp + Acid 110], the “fraction of fluorescent probe displaced” value was 0.015. `CN1C(=O)[C@H](CNC(=O)c2cccc(Oc3ccccc3)c2)NC(=O)[C@H]2CCCN(C2)C(=O)CCSSCCNC(=O)[C@@H]1Cc1c[nH]c2ccccc12` [X-Nip-Dap-NMe-Trp + Acid 111]: the “fraction of fluorescent probe displaced” value is recorded as -0.019.

As to `CN1C(=O)[C@H](CNC(=O)/C=C/c2ccc3ccccc3c2)NC(=O)[C@H]2CCCN(C2)C(=O)CCSSCCNC(=O)[C@@H]1Cc1c[nH]c2ccccc12` [X-Nip-Dap-NMe-Trp + Acid 112], the “fraction of fluorescent probe displaced” value worked out at 0.015. For the molecule `CN1C(=O)[C@H](CNC(=O)CCS(=O)(=O)c2ccccc2)NC(=O)[C@H]2CCCN(C2)C(=O)CCSSCCNC(=O)[C@@H]1Cc1c[nH]c2ccccc12` [X-Nip-Dap-NMe-Trp + Acid 114], the “fraction of fluorescent probe displaced” value amounted to 0.021. Same read-out and setting: in the case of `CN1C(=O)[C@H](CNC(=O)C2COc3ccccc3O2)NC(=O)[C@H]2CCCN(C2)C(=O)CCSSCCNC(=O)[C@@H]1Cc1c[nH]c2ccccc12` (stereo partly drawn) [X-Nip-Dap-NMe-Trp + Acid 115] it was -0.012. `O=C(NC[C@@H]1NC(=O)[C@H]2CCCN(C2)C(=O)CCSSCCNC(=O)[C@H](Cc2c[nH]c3ccccc23)NC1=O)c1ccc(Cl)s1` [X-Nip-Dap-Trp + Acid 14]: the “fraction of fluorescent probe displaced” value came out at 0.208.

Turning to `O=C(NC[C@@H]1NC(=O)[C@H]2CCCN(C2)C(=O)CCSSCCNC(=O)[C@H](Cc2c[nH]c3ccccc23)NC1=O)c1ccc(Cl)cc1` [X-Nip-Dap-Trp + Acid 25], the “fraction of fluorescent probe displaced” value is 0.194. The same measure, in the same setting: in the case of `O=C(NC[C@@H]1NC(=O)[C@H]2CCCN(C2)C(=O)CCSSCCNC(=O)[C@H](Cc2c[nH]c3ccccc23)NC1=O)c1ccc2ccccc2c1` [X-Nip-Dap-Trp + Acid 107] it was 0.440. On the same count and under the same terms, in the case of `O=C(/C=C/c1ccc(Cl)cc1)NC[C@@H]1NC(=O)[C@H]2CCCN(C2)C(=O)CCSSCCNC(=O)[C@H](Cc2c[nH]c3ccccc23)NC1=O` [X-Nip-Dap-Trp + Acid 108] it was 0.421; in that of `O=C(/C=C/c1ccc(OCc2ccccc2)cc1)NC[C@@H]1NC(=O)[C@H]2CCCN(C2)C(=O)CCSSCCNC(=O)[C@H](Cc2c[nH]c3ccccc23)NC1=O` [X-Nip-Dap-Trp + Acid 110], 0.015. As to `O=C(/C=C/c1ccc2ccccc2c1)NC[C@@H]1NC(=O)[C@H]2CCCN(C2)C(=O)CCSSCCNC(=O)[C@H](Cc2c[nH]c3ccccc23)NC1=O` [X-Nip-Dap-Trp + Acid 112], the “fraction of fluorescent probe displaced” value was determined as 0.574. Same read-out and setting: the value for `O=C(CCS(=O)(=O)c1ccccc1)NC[C@@H]1NC(=O)[C@H]2CCCN(C2)C(=O)CCSSCCNC(=O)[C@H](Cc2c[nH]c3ccccc23)NC1=O` [X-Nip-Dap-Trp + Acid 114] was -0.012; that for `O=C(/C=C/c1ccc(Cl)cc1)NCCN1CC(=O)N[C@@H](Cc2cccc3ccccc23)C(=O)NCCSSCCC(=O)N2CCC[C@@H](C2)C1=O` [X-Nip-N-Aeg-1-NaI + Acid 108] was 0.021. Still for that read-out and setting: the value for `O=C(/C=C/c1ccc(OCc2ccccc2)cc1)NCCN1CC(=O)N[C@@H](Cc2cccc3ccccc23)C(=O)NCCSSCCC(=O)N2CCC[C@@H](C2)C1=O` [X-Nip-N-Aeg-1-NaI + Acid 110] was -0.00533; that for `O=C1CN(CCNC(=O)c2cccc(Oc3ccccc3)c2)C(=O)[C@H]2CCCN(C2)C(=O)CCSSCCNC(=O)[C@H](Cc2cccc3ccccc23)N1` [X-Nip-N-Aeg-1-NaI + Acid 111] was 0.035; that for `O=C(/C=C/c1ccc2ccccc2c1)NCCN1CC(=O)N[C@@H](Cc2cccc3ccccc23)C(=O)NCCSSCCC(=O)N2CCC[C@@H](C2)C1=O` [X-Nip-N-Aeg-1-NaI + Acid 112] was 0.015. Same read-out and setting: in the case of `O=C(CCS(=O)(=O)c1ccccc1)NCCN1CC(=O)N[C@@H](Cc2cccc3ccccc23)C(=O)NCCSSCCC(=O)N2CCC[C@@H](C2)C1=O` [X-Nip-N-Aeg-1-NaI + Acid 114] it was 0.008; in that of `O=C1CN(CCNC(=O)c2ccc(Cl)cc2)C(=O)[C@H]2CCCN(C2)C(=O)CCSSCCNC(=O)[C@H](Cc2ccc3ccccc3c2)N1` [X-Nip-N-Aeg-2-Nal + Acid 25], 0.00133. For `O=C1CN(CCNC(=O)c2ccc3ccccc3c2)C(=O)[C@H]2CCCN(C2)C(=O)CCSSCCNC(=O)[C@H](Cc2ccc3ccccc3c2)N1` [X-Nip-N-Aeg-2-Nal + Acid 107], the “fraction of fluorescent probe displaced” value stood at 0.011.

The assay is the same for the next values; noted with them: Panel c, Library 4: best nine scaffolds and 15 additional carboxylic acids; displacement of fluorescent probe.
Regarding `Cn1cc(C[C@@H]2NC(=O)[C@H](CNC(=O)/C=C/c3ccc(F)cc3)NC(=O)[C@H]3CCCN(C3)C(=O)CCSSCCNC2=O)c2ccccc21` [X-Nip-Dap-Me-Trp + Acid 116], the “fraction of fluorescent probe displaced” value is recorded as 0.052. On the same count and under the same terms, the value for `Cn1cc(C[C@@H]2NC(=O)[C@H](CNC(=O)/C=C/c3ccc(Cl)c(Cl)c3)NC(=O)[C@H]3CCCN(C3)C(=O)CCSSCCNC2=O)c2ccccc21` [X-Nip-Dap-Me-Trp + Acid 119] was 0.085. On the same count and under the same terms, in the case of `Cn1cc(C[C@@H]2NC(=O)[C@H](CNC(=O)/C=C/c3cccc(Cl)c3)NC(=O)[C@H]3CCCN(C3)C(=O)CCSSCCNC2=O)c2ccccc21` [X-Nip-Dap-Me-Trp + Acid 121] it was 0.118; in that of `Cn1cc(C[C@@H]2NC(=O)[C@H](CNC(=O)/C=C/c3cccc(C(F)(F)F)c3)NC(=O)[C@H]3CCCN(C3)C(=O)CCSSCCNC2=O)c2ccccc21` [X-Nip-Dap-Me-Trp + Acid 122], 0.101; in that of `CC(C)c1ccc(/C=C/C(=O)NC[C@@H]2NC(=O)[C@H]3CCCN(C3)C(=O)CCSSCCNC(=O)[C@H](Cc3cn(C)c4ccccc34)NC2=O)cc1` [X-Nip-Dap-Me-Trp + Acid 127], 0.028. Still for that read-out and setting: in the case of `Cn1cc(C[C@@H]2NC(=O)[C@H](CNC(=O)c3cnc4ccccc4n3)NC(=O)[C@H]3CCCN(C3)C(=O)CCSSCCNC2=O)c2ccccc21` [X-Nip-Dap-Me-Trp + Acid 130] it was -0.00464; in that of `O=C(/C=C/c1ccc(F)cc1)NC[C@@H]1NC(=O)[C@H]2CCCN(C2)C(=O)CCSSCCNC(=O)[C@H](Cc2c[nH]c3ccccc23)NC1=O` [X-Nip-Dap-Trp + Acid 116], 0.443. As to `CCOc1ccc(/C=C/C(=O)NC[C@@H]2NC(=O)[C@H]3CCCN(C3)C(=O)CCSSCCNC(=O)[C@H](Cc3c[nH]c4ccccc34)NC2=O)cc1` [X-Nip-Dap-Trp + Acid 117], the “fraction of fluorescent probe displaced” value came out at 0.533. The same measure, in the same setting: the value for `CCCOc1ccc(/C=C/C(=O)NC[C@@H]2NC(=O)[C@H]3CCCN(C3)C(=O)CCSSCCNC(=O)[C@H](Cc3c[nH]c4ccccc34)NC2=O)cc1` [X-Nip-Dap-Trp + Acid 118] was 0.435; that for `O=C(/C=C/c1ccc(Cl)c(Cl)c1)NC[C@@H]1NC(=O)[C@H]2CCCN(C2)C(=O)CCSSCCNC(=O)[C@H](Cc2c[nH]c3ccccc23)NC1=O` [X-Nip-Dap-Trp + Acid 119] was 0.435; that for `O=C(/C=C/c1cccc(Cl)c1)NC[C@@H]1NC(=O)[C@H]2CCCN(C2)C(=O)CCSSCCNC(=O)[C@H](Cc2c[nH]c3ccccc23)NC1=O` [X-Nip-Dap-Trp + Acid 121] was 0.468.

Regarding `O=C(/C=C/c1cccc(C(F)(F)F)c1)NC[C@@H]1NC(=O)[C@H]2CCCN(C2)C(=O)CCSSCCNC(=O)[C@H](Cc2c[nH]c3ccccc23)NC1=O` [X-Nip-Dap-Trp + Acid 122], the “fraction of fluorescent probe displaced” value was determined as 0.395. Same read-out and setting: the value for `CC(=Cc1ccccc1)C(=O)NCC1NC(=O)C2CCCN(C2)C(=O)CCSSCCNC(=O)C(Cc2c[nH]c3ccccc23)NC1=O` (stereo not drawn) [X-Nip-Dap-Trp + Acid 123] was 0.044; that for `CC(C)c1ccc(C=CC(=O)NCC2NC(=O)C3CCCN(C3)C(=O)CCSSCCNC(=O)C(Cc3c[nH]c4ccccc34)NC2=O)cc1` (stereo not drawn) [X-Nip-Dap-Trp + Acid 127] was 0.313.

Take `O=C(NC[C@@H]1NC(=O)[C@H]2CCCN(C2)C(=O)CCSSCCNC(=O)[C@H](Cc2c[nH]c3ccccc23)NC1=O)c1cnc2ccccc2n1` [X-Nip-Dap-Trp + Acid 130]: the “fraction of fluorescent probe displaced” value was found to be 0.036.
